Experimental data published in PubChem BioAssay (NCI).
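Step 1: Grow cells in 96-well plates. Step 2: Expose to compound for 48 hours at 5 concentrations. Step 3: Interpolate endpoints linearly; if unreached, use highest concentration. GI50: concentration for 50% inhibition of growth. TGI: concentration producing complete growth inhibition.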

Tests used:
Test in all cases: growth of human tumour cells (NCI), 48 h
[1] = tested on: CAKI-1 renal
[2] = tested on: HOP-62 NSCLC
[3] = tested on: 786-0 renal
[4] = tested on: OVCAR-4 ovarian
[5] = tested on: HOP-92 NSCLC
[6] = tested on: LOX IMVI melanoma
[7] = tested on: HS 578T breast
[8] = tested on: DU-145 prostate
[9] = tested on: CCRF-CEM leukemia
[10] = tested on: UACC-257 melanoma
[11] = tested on: TK-10 renal
[12] = tested on: UO-31 renal
[13] = tested on: SN12C renal
[14] = tested on: SW-620 colon
[15] = tested on: SNB-19 CNS
[16] = tested on: BT-549 breast
[17] = tested on: MCF7 breast
[18] = tested on: NCI-H23 lung
[19] = tested on: PC-3 prostate
[20] = tested on: SF-295 CNS
[21] = tested on: OVCAR-8 ovarian
[22] = tested on: A498 renal
[23] = tested on: SR leukemia
[24] = tested on: SK-OV-3 ovarian
[25] = tested on: HCC-2998 colon
[26] = tested on: HT29 colon
[27] = tested on: MDA-MB-435
[28] = tested on: EKVX NSCLC
[29] = tested on: ACHN renal
[30] = tested on: COLO 205 colon
[31] = tested on: SNB-75 CNS
[32] = tested on: A549 NSCLC
[33] = tested on: MDA-MB-468 breast
[34] = tested on: T-47D breast
[35] = tested on: NCI-H522 lung
[36] = tested on: OVCAR-3 ovarian
[37] = tested on: RPMI-8226 leukemia
[38] = tested on: MOLT-4 leukemia
[39] = tested on: KM12 colon
[40] = tested on: HCT-116 colon
[41] = tested on: HCT-15 colon
[42] = tested on: SF-268 CNS
[43] = tested on: OVCAR-5 ovarian
[44] = tested on: MALME-3M melanoma
[45] = tested on: SK-MEL-5 melanoma
[46] = tested on: MDA-MB-231 breast
[47] = tested on: SF-539 CNS
[48] = tested on: NCI-H460 lung
[49] = tested on: NCI-H226 lung
[50] = tested on: NCI/ADR-RES ovarian
[51] = tested on: SK-MEL-2 melanoma
[52] = tested on: IGROV1 ovarian
[53] = tested on: UACC-62 melanoma
[54] = tested on: M14 melanoma
[55] = tested on: RXF 393 renal
[56] = tested on: SK-MEL-28 melanoma
[57] = tested on: K-562 leukemia
[58] = tested on: U251 CNS
[59] = tested on: HL-60(TB) leukemia

## CCCn1c(=O)c2[nH]c(-c3ccc(OCc4nc5ccc(C)cc5[nH]4)cc3)nc2n(CCC)c1=O
[1]
  GI50: 4.55 µM
  TGI: 25.1 µM
[2]
  GI50: 4.12 µM
  TGI: 16.9 µM
[3]
  GI50: 3.06 µM
  TGI: 12.1 µM
[4]
  GI50: 2.73 µM
  TGI: > 100 µM
[5]
  GI50: 2.29 µM
  TGI: 9.1 µM
[6]
  GI50: 4.72 µM
  TGI: 17.3 µM
[7]
  GI50: 2.36 µM
  TGI: 11.1 µM
[8]
  GI50: 66.4 µM
  TGI: > 100 µM
[9]
  GI50: 32.8 µM
  TGI: > 100 µM
[10]
  GI50: 40.9 µM
  TGI: > 100 µM
[11]
  GI50: 10.7 µM
  TGI: 23.1 µM
[12]
  GI50: 1.98 µM
  TGI: 7.27 µM
[13]
  GI50: 3.78 µM
  TGI: 18.1 µM
[14]
  GI50: 32.5 µM
  TGI: > 100 µM
[15]
  GI50: 6 µM
  TGI: 28.6 µM
[16]
  GI50: 14 µM
  TGI: 46.7 µM
[17]
  GI50: 7.35 µM
  TGI: 36.6 µM
[18]
  GI50: 12 µM
  TGI: 24.4 µM
[19]
  GI50: 9.66 µM
  TGI: > 100 µM
[20]
  GI50: 2.65 µM
  TGI: 13.1 µM
[21]
  GI50: 5.3 µM
  TGI: 24.8 µM
[22]
  GI50: 2.43 µM
  TGI: 10.6 µM
[23]
  GI50: > 100 µM
  TGI: > 100 µM
[24]
  GI50: 12.1 µM
  TGI: 27 µM
[25]
  GI50: 29 µM
  TGI: > 100 µM
[26]
  GI50: 29.6 µM
  TGI: > 100 µM
[27]
  GI50: 31 µM
  TGI: > 100 µM
[28]
  GI50: 20.7 µM
  TGI: > 100 µM
[29]
  GI50: 3.29 µM
  TGI: 13.4 µM
[30]
  GI50: 84.7 µM
  TGI: > 100 µM
[31]
  GI50: 1.54 µM
  TGI: 4.62 µM
[32]
  GI50: 13.5 µM
  TGI: > 100 µM
[33]
  GI50: 8.62 µM
  TGI: 27.6 µM
[34]
  GI50: 16.9 µM
  TGI: 47.2 µM
[35]
  GI50: 17.2 µM
  TGI: 42.3 µM
[36]
  GI50: 8.62 µM
  TGI: 85.9 µM
[37]
  GI50: 9.71 µM
  TGI: > 100 µM
[38]
  GI50: 12.2 µM
  TGI: > 100 µM
[39]
  GI50: > 100 µM
  TGI: > 100 µM
[40]
  GI50: 11.3 µM
  TGI: 27.8 µM
[41]
  GI50: 14.7 µM
  TGI: > 100 µM
[42]
  GI50: 12.6 µM
  TGI: > 100 µM
[43]
  GI50: 18.5 µM
  TGI: 76.8 µM
[44]
  GI50: 7.28 µM
  TGI: 20.5 µM
[45]
  GI50: 13.7 µM
  TGI: 31.5 µM
[46]
  GI50: 3.48 µM
  TGI: 14.5 µM
[47]
  GI50: 2.61 µM
  TGI: 7.98 µM
[48]
  GI50: 6.04 µM
  TGI: 23.1 µM
[49]
  GI50: 2.91 µM
  TGI: 13.2 µM
[50]
  GI50: 11 µM
  TGI: 64.5 µM
[51]
  GI50: 16.8 µM
  TGI: 33.2 µM
[52]
  GI50: 10.1 µM
  TGI: 38.7 µM
[53]
  GI50: 10 µM
  TGI: 25.6 µM
[54]
  GI50: 21.3 µM
  TGI: > 100 µM
[55]
  GI50: 1.62 µM
  TGI: 5.12 µM
[56]
  GI50: 15.9 µM
  TGI: > 100 µM
[57]
  GI50: 22.3 µM
  TGI: > 100 µM
[58]
  GI50: 4.06 µM
  TGI: 17 µM
[59]
  GI50: 46.2 µM
  TGI: > 100 µM

## CN1CCN(c2ccc(C(=O)/C=C/c3cc(C(F)(F)F)cc(C(F)(F)F)c3)cc2)CC1
[1]
  GI50: 1.66 µM
  TGI: 3.26 µM
[2]
  GI50: 1.86 µM
  TGI: 3.75 µM
[3]
  GI50: 1.68 µM
  TGI: 3.11 µM
[4]
  GI50: 1.52 µM
  TGI: 3.49 µM
[6]
  GI50: 1.35 µM
  TGI: 2.63 µM
[7]
  GI50: 4.88 µM
  TGI: 34.7 µM
[8]
  GI50: 1.63 µM
  TGI: 3.04 µM
[9]
  GI50: 2.38 µM
  TGI: 5.87 µM
[10]
  GI50: 1.73 µM
  TGI: 3.58 µM
[11]
  GI50: 2 µM
  TGI: 3.45 µM
[12]
  GI50: 1.46 µM
  TGI: 2.78 µM
[13]
  GI50: 1.3 µM
  TGI: 2.59 µM
[14]
  GI50: 1.81 µM
  TGI: 4.51 µM
[15]
  GI50: 1.73 µM
  TGI: 3.1 µM
[16]
  GI50: 1.33 µM
  TGI: 2.66 µM
[17]
  GI50: 1.2 µM
  TGI: 2.56 µM
[18]
  GI50: 1.51 µM
  TGI: 2.97 µM
[19]
  GI50: 1.64 µM
  TGI: 3.32 µM
[20]
  GI50: 1.47 µM
  TGI: 2.82 µM
[21]
  GI50: 1.73 µM
  TGI: 4.36 µM
[22]
  GI50: 17.9 µM
  TGI: 35.6 µM
[23]
  GI50: 1.17 µM
  TGI: 3.93 µM
[24]
  GI50: 2.6 µM
  TGI: 6.12 µM
[25]
  GI50: 1.39 µM
  TGI: 2.68 µM
[26]
  GI50: 1.62 µM
  TGI: 3.41 µM
[27]
  GI50: 1.6 µM
  TGI: 3.07 µM
[28]
  GI50: 1.87 µM
  TGI: 3.41 µM
[29]
  GI50: 1.49 µM
  TGI: 2.82 µM
[30]
  GI50: 2.03 µM
  TGI: 3.87 µM
[33]
  GI50: 1.24 µM
  TGI: 2.56 µM
[34]
  GI50: 1.27 µM
  TGI: 3.1 µM
[35]
  GI50: 1.4 µM
  TGI: 2.97 µM
[36]
  GI50: 1.45 µM
  TGI: 2.94 µM
[37]
  GI50: 1.44 µM
  TGI: 3.8 µM
[38]
  GI50: 1.42 µM
  TGI: 5.01 µM
[39]
  GI50: 1.76 µM
  TGI: 3.82 µM
[40]
  GI50: 1.15 µM
  TGI: 2.45 µM
[41]
  GI50: 1.12 µM
  TGI: 2.39 µM
[42]
  GI50: 1.82 µM
  TGI: 3.71 µM
[43]
  GI50: 1.68 µM
  TGI: 3.2 µM
[44]
  GI50: 1.66 µM
  TGI: 3.07 µM
[45]
  GI50: 1.55 µM
  TGI: 2.9 µM
[46]
  GI50: 1.75 µM
  TGI: 3.35 µM
[47]
  GI50: 1.64 µM
  TGI: 3 µM
[48]
  GI50: 2.89 µM
  TGI: > 100 µM
[49]
  GI50: 1.49 µM
  TGI: 3.2 µM
[50]
  GI50: 1.64 µM
  TGI: 3.64 µM
[51]
  GI50: 1.73 µM
  TGI: 3.23 µM
[52]
  GI50: 1.65 µM
  TGI: 3.15 µM
[53]
  GI50: 1.5 µM
  TGI: 2.86 µM
[54]
  GI50: 1.52 µM
  TGI: 2.97 µM
[55]
  GI50: 1.19 µM
  TGI: 2.57 µM
[56]
  GI50: 1.68 µM
  TGI: 3.05 µM
[57]
  GI50: 1.07 µM
  TGI: 6.37 µM
[58]
  GI50: 1.66 µM
  TGI: 3.18 µM
[59]
  GI50: 1.04 µM
  TGI: 2.79 µM
